Source: US7138543B2, “Thiolalkyl benzoic acid derivatives” (Guilford Pharmaceuticals Inc., priority 2001, dated 2006)

Key:
STZ-diabetic rats [1] = test: Diabetic neuropathy in STZ model (motor and sensory nerve conduction velocity); assay type: in vivo
Procedure: In vivo Assay of NAALADase Inhibitors on Diabetic Neuropathy in STZ Model
Motor and sensory nerve conduction velocity was also measured in STZ-diabetic animals after 4, 8 and 12 weeks of treatment (see De Koning et al., supra, for a description of the experimental method). Briefly, stimulating needle electrodes were inserted close to the sciatic and tibial nerves with recording electrodes being placed subcutaneously over the distal foot muscles, in anesthetized rats.

STZ-diabetic rats [2] = test: Neuropathic pain in STZ model (Hargreaves thermal nociception); assay type: in vivo, Sprague-Dawley rats; conditions: 10 mg/kg i.p. daily, started 45 days post-STZ
Procedure: In vivo Assay of NAALADase Inhibitors on Neuropathic Pain in STZ Model
Male Sprague-Dawley rats (200–225 g) were rendered diabetic by intravenous administration of streptozotocin (“STZ”, 70 mg/kg in phosphate buffered saline). Diabetic animals were divided into five groups: one group receiving Compound A (10 mg/kg or 1 mg/kg), Compound D (10 mg/kg or 1 mg/kg) or vehicle. Another group of animals (non-STZ treated) served as non-diabetic controls. Drug/vehicle treatment was started in diabetic animals 45 days post-STZ administration. STZ-induced diabetic rats were tested for sensitivity to a heat source as soon as blood glucose levels rose to 320 mg/dl or above (30 days post STZ). The rats were then acclimated to a Hargreaves apparatus and thermal nociception was monitored using an infrared heat source directed into the dorsal surface of the hindpaw, and the time taken for the animal to remove its paw noted to the nearest 0.1 seconds (see Hargreaves et al., J. Biol. Chem. (1988) 263(36):19392–7 for a description of the experimental method). The intensity of the beam source was adjusted such that the mean latency for control animals (non-STZ treated) was approximately 10 seconds. Each animal was tested 8 times and the mean difference score (between mean non-diabetic control latency and mean diabetic latency) are graphically presented in FIGS. 7A and 7B.

[3] = system: rats with unilateral elevation of intraocular pressure; test: Experimental rat glaucoma (IOP elevation, optic nerve fiber counting); assay type: in vivo; conditions: 8 week group
Procedure: Protective Effect of NAALADase Inhibitors in Experimental Rat Glaucoma
All experiments complied with the Association for Research in Vision and Ophthalmology Statement for the Use of Animals in Ophthalmic and Vision Research. 82 male Brown Norway rats (Rattus norvegicus), each weighing approximately 250 gm, were treated using procedures approved by the Animal Care Committee of the Johns Hopkins University School of Medicine. The rats were housed with a 12 hour light/12 hour dark cycle and fed ad libitum.
EXPERIMENTAL GLAUCOMA: Unilateral elevation of intraocular pressure (“IOP”) was produced in 56 rats by microinjection of hypertonic saline into episcleral veins, following procedures described in Morrison, J. et al., IOVS (March 1998) 39:526–531. Beginning on the day of IOP elevation, the rats were treated daily with intraperitoneal injections of either a vehicle (23 rats with 50 mM HEPES-buffered saline) or a NAALADase inhibitor (11 rats with 10 mg/kg of Compound A and 22 rats with 10 mg/kg of Compound B). 11 saline treated rats, 11 Compound A treated rats and 11 Compound B treated rats were sacrificed at 8 weeks, and the remaining rats at 12 weeks, after initial IOP elevation.
OPTIC NERVE COUNTING: The rats were sacrificed by exsanguination under deep pentobarbital anesthesia. They were perfused through the heart with 2% paraformaldehyde/2% glutaraldehyde in 0.1 M phosphate buffer, pH 7.2, and the eyes with attached optic nerves were removed. A cross-section of the optic nerve from both experimental (glaucoma or transection) and control eyes was removed 1.5 mm posterior to the globe, 1 mm in thickness, and post-fixed in 2% osmium tetroxide in buffer. These were processed into epoxy resin, sectioned at 1 micron and stained with toluidine blue.
The area of the optic nerve cross-section was measured by outlining its outer border at 10× magnification on an image analysis system (Universal Imaging Corp., Westchester, Pa.) with Synsys digital camera and Metamorph software. Three area measurements were taken and the mean value was determined. To measure the density and fiber diameter distributions, images were captured with a 100× phase contrast objective from 10 different areas of each nerve. These were edited to eliminate non-neural objects and the size of each axon internal to the myelin sheath (its minimum diameter) and the density of axons/square mm were calculated for each image and nerve. The mean density was multiplied by total nerve area to yield fiber number for each nerve. The total fiber number in glaucoma or transection nerves was compared to the normal, fellow eye of each rat to yield a percent loss value. The number of axons counted among the 10 images was an approximately 20% sample of the 80–90,000 axons in normal rat nerves. The person measuring axon number was masked to the protocol conducted on the nerves.

BB/W diabetic rats = test: Progression of neuropathic pain in BB/W model (withdrawal latency); assay type: in vivo; conditions: 10 mg/kg i.p. daily; vs diabetic vehicle-treated rats, from 4 weeks through six months of treatment, FIG. 11
Text: In vivo Assay of NAALADase Inhibitors on Progression of Neuropathic Pain in BB/W Models
Male BB/W rats (BRI, Mass) spontaneously develop a cell mediated autoimmune destruction of pancreatic B cells, resulting in onset of insulin-dependent (Type I) diabetes (Awata, Guberski, Endocrinology (1995) 136(12):5731–5). […] This renders them valuable for experimental trials of new compounds for future treatments of this major disorder. In the present study, Compound A and Compound D were examined for their ability to alter the progression of diabetic neuropathy. The rats received daily injection of Compound A or Compound D (10 mg/kg i.p.) or vehicle, starting at the onset of diabetes (hyperglycemia) and up to 6 months thereafter. Another group of non-diabetic rats also receiving vehicle were tested. All animals were continuously monitored for body weight, urine volume, blood sugar and glycated haemoglobin. In the first month of the study, all animals were tested for thermal nociception in a Hargreaves apparatus, weekly. After the first month this was done biweekly and then monthly. The testing consists of directing an infrared heat source onto the dorsal surface of the rat hindpaw and noting the time taken for the animal to remove its paw (see Hargreaves et al., J. Biol. Chem. (1988) 263(36):19392–7 for a description of the experimental method). […]

transgenic G1H mice = test: Onset of ALS in transgenic mice model of FALS; assay type: in vivo; conditions: for DISEASE ONSET: 50 mg/kg daily intraperitoneal
Procedure: Effect of NAALADase Inhibitors on Onset of ALS
The effect of NAALADase inhibitors on the onset of ALS was tested using the transgenic mice model of familial amyotrophic lateral sclerosis (“FALS”), which is detailed in Gurney, M., Annals of Neurology (1996) 39:147–157, and otherwise well known in the art. One month old transgenic G1H mice were treated with daily intraperitoneal injections of a vehicle (50 mM HEPES-buffered saline) or a NAALADase inhibitor (50 mg/kg Compound A). Clinical symptoms of the mice were monitored daily. The onset of clinical disease was scored by examining each mouse for its shaking of limbs when suspended in the air by its tail, cross spread of spinal reflexes, hindlimb paralysis, body weight and wheel running activity.

Compound: O=C(O)CCC(CP(=O)(O)Cc1c(F)c(F)c(F)c(F)c1F)C(=O)O (centres unmarked) [Compound A]
- motor and sensory nerve conduction velocities (STZ-diabetic rats [1]; 10 mg/kg daily for 4, 8 and 12 weeks, FIGS. 9A and 9B): tended to improve (increase) both motor and sensory nerve conduction velocities
- treatment time at which significant improvement of motor nerve conduction velocity was observed (STZ-diabetic rats [1]; 10 mg/kg daily, FIG. 9A): 12 weeks
- treatment time at which significant improvement of sensory nerve conduction velocity was observed (STZ-diabetic rats [1]; 10 mg/kg daily, FIG. 9B): 8 weeks
- hyperalgesic response (withdrawal latency difference score) (STZ-diabetic rats [2]): completely reversed
- FIBER NUMBER ([3]; 10 mg/kg daily intraperitoneal): 79156 ± 2436
- PERCENT DIFFERENCE in fiber number between glaucoma and normal eye ([3]; positive value indicates fewer fibers in the glaucoma eye): −1.82 ± 2.92%
- withdrawal latency (BB/W diabetic rats): longer withdrawal latencies
- DIFFERENCE in disease onset vs vehicle (transgenic G1H mice; Study 1): 32
- DISEASE ONSET (transgenic G1H mice; Study 1): 221 days
- DIFFERENCE in disease onset vs vehicle (transgenic G1H mice; Study 2): 25
- DISEASE ONSET (transgenic G1H mice; Study 2): 166 days
